{
  "source": "paper PMC3566143",
  "about": "“Pantothenamides Are Potent, On-Target Inhibitors of Plasmodium falciparum Growth When Serum Pantetheinase Is Inactivated” (PLoS ONE, 2013)",
  "key": {"[1]": {"biological_target": "T1, recombinant human pantetheinase (Vanin-1) (Homo sapiens, UniProt O95497)", "T1 construct": "purchased Novoprotein Scientific Inc. (Short Hills, New Jersey, USA)", "T1 sequence (O95497 22-513)": "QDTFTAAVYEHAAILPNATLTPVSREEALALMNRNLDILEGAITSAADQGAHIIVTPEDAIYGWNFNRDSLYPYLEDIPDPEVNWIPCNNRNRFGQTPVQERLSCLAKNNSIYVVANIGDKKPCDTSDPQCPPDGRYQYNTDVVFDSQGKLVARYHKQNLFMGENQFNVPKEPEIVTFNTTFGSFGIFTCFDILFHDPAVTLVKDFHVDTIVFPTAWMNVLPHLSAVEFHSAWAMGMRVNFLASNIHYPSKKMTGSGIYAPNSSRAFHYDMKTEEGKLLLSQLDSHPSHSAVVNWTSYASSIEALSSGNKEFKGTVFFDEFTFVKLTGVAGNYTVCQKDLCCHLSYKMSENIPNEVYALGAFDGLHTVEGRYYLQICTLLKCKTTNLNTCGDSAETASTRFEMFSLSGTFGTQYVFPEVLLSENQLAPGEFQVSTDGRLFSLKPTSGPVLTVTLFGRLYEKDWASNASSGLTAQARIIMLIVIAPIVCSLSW", "experiment": "fluorescamine-based pantothenamide hydrolysis assay with recombinant pantetheinase", "format": "in vitro ADME", "conditions": "200 µM compound, same conditions with water instead of enzyme", "method": "Hydrolysis of compound 12 to pantothenate and isobutylamine was measured using a modification of a fluorescence-based assay described previously for the measurement of N-acetyl-1-D-myo-inosityl-2-amino-2-deoxy-α-D-glucopyranoside deacetylase activity, [31]. The assay utilizes fluorescamine (4-phenylspiro-[furan-2(3H),1-phthalan]-3,3′-dione; a non-fluorescent molecule that reacts with primary amines to form a fluorescent product) for the detection of primary amines. Briefly, recombinant human pantetheinase (at a final concentration of 100 ng/mL), Albumax II (at a final concentration 0.6%, w/v), or an equivalent volume of water, was added to solutions (at 37°C) of 100 mM potassium phosphate, pH 7.5, 0.5 mM dithiothreitol, 0.01% (w/v) bovine serum albumin, 0.1% (v/v) DMSO, with or without pantothenamide (at a final concentration of 200 µM). At the appropriate time points, aliquots (30 µL) of the reaction mixtures were removed in duplicate and mixed with 10 µL 20% (v/v) trichloroacetic acid to terminate the reaction. […] The plate was then incubated at 37°C for 10 min before fluorescence was measured using a FLUOstar OPTIMA multidetection microplate reader from BMG LABTECH with excitation and emission wavelengths of 390 and 485 nm, respectively. The fluorescence detected was converted to the corresponding isobutylamine concentration using an isobutylamine standard curve. […]"}, "[2]": {"tested_on": "erythrocytic stage P. falciparum parasites (strain 3D7)", "experiment": "SYBR Green I-based in vitro growth assay (96 h)", "format": "cell-based, Plasmodium falciparum", "conditions": "for IC50: Plasmodium falciparum, 96 h", "method": "Erythrocytic stage P. falciparum parasites (strain 3D7) were maintained within human erythrocytes in continuous culture essentially as described previously, [25]. P. falciparum-infected erythrocytes were routinely cultured in RPMI 1640 medium supplemented with 25 mM HEPES, 20 mM D-glucose, 200 µM hypoxanthine, 24 mg/L gentamycin and Albumax II (0.6%, w/v), which, hereafter is referred to as Albumax-complete RPMI. For several days prior to carrying out the assays testing the effect of compounds on the growth of P. falciparum in medium supplemented with human serum (instead of Albumax II), the parasites were cultured in the same medium mentioned above, except that human serum (10%, v/v, pooled from different blood donors) was used rather than Albumax II. This medium is hereafter referred to as human serum-complete RPMI.\nThe in vitro antiplasmodial activity of test compounds was determined using the malaria SYBR Green I-based fluorescence assay described by Smilkstein et al., with minor modifications. Briefly, P. falciparum-infected erythrocytes were incubated in culture medium containing two-fold dilutions of the test compounds in 96-well microtiter plates. Assays were initiated with ring-stage P. falciparum-infected erythrocytes at a hematocrit and parasitemia of 1%. Wells containing infected erythrocytes in the presence of chloroquine (0.25–2 µM) served as zero growth controls and wells containing infected erythrocytes in the absence of chloroquine or test compounds served as 100% parasite growth controls. Plates were incubated at 37°C under an atmosphere of 96% nitrogen, 3% carbon dioxide and 1% oxygen for 96 h, before 100 µL from each well was mixed with 100 µL of SYBR Safe DNA gel stain (0.2 µL/mL) in 20 mM Tris, pH 7.5, 5 mM ethylenediaminetetraacetic acid (EDTA), 0.008% (w/v) saponin, 0.08% (v/v) Triton X-100, in a second 96-well microtitre plate. Fluorescence was measured using a FLUOstar OPTIMA multidetection microplate reader from BMG LABTECH with excitation and emission wavelengths of 490 and 520 nm, respectively. The 50% inhibitory concentration (IC50) of each test compound under each test condition was calculated by fitting the data to a sigmoidal curve (typically y = a/(1+ (x/x0)^b) using nonlinear least squares regression (SigmaPlot, Systat Software) and averaging the IC50 estimates from independent experiments.\nThe antiplasmodial activity of test compounds was assessed in media that had been subjected to different pre-incubations. “Fresh” medium refers to medium that was stored for a maximum of 48 h at 4°C, and incubated at 37°C for a maximum of 1 h, prior to use. “Aged” medium refers to medium that was stored for a minimum of one week at 4°C and incubated intermittently at 37°C, or medium incubated continuously at 37°C for 40 h soon after preparation. As indicated at the relevant positions within the “Results” section, for some experiments the fresh medium used was, more specifically, medium used immediately following preparation, and the aged medium used was, more specifically, medium that was incubated at 37°C for 40 h immediately prior to use."}},
  "note": "Read-outs that look alike come from different tables or passages of the source.",
  "data": [
    {"smiles": "CC(C)CNC(=O)CCNC(=O)[C@H](O)C(C)(C)CO", "note": "[Compound 12]", "values": [
      {"measurement": "hydrolysis in the absence of pantetheinase", "setting": "[1]", "result": "not observed"},
      {"measurement": "IC50", "setting": "[2]; 3D7, 96 h, fresh Albumax-complete RPMI, 1 µM pantothenate, read-out: IC50 against P. falciparum, fresh medium, 1 μM pantothenate", "result": "133 ± 12", "unit": "µM"},
      {"measurement": "IC50", "setting": "[2]; 3D7, aged Albumax-complete RPMI (37°C for 40 h), 1 µM pantothenate, read-out: IC50 against P. falciparum, aged medium, 1 μM pantothenate", "result": "1.1 ± 0.1", "unit": "µM"},
      {"measurement": "IC50", "setting": "[2]; 3D7, human serum (10%, v/v) medium incubated at 37°C for 40 h, read-out: IC50 against P. falciparum in aged human serum-complete RPMI", "result": "22 ± 10", "unit": "µM"},
      {"measurement": "increase in potency after second ageing of Albumax II-supplemented aged medium", "setting": "[2]; aged + Albumax II + 40 h at 37°C versus aged + fresh Albumax II", "result": "> 65", "unit": "fold"},
      {"measurement": "effect of recombinant human pantetheinase on antiplasmodial effect in aged medium", "setting": "[2]; aged Albumax-complete RPMI + 100 ng/mL recombinant human pantetheinase added at start of assay", "result": "alleviated the antiplasmodial effect"},
      {"measurement": "fold-increase in IC50 following supplementation with 100 µM pantothenate, aged medium", "setting": "[2]; aged Albumax-complete RPMI, IC50 at 100 µM pantothenate / IC50 at 1 µM pantothenate", "result": "21±1", "unit": "times"},
      {"measurement": "effect on parasite growth in aged Albumax-complete RPMI with additional Albumax II", "setting": "[2]; aged medium + additional Albumax II (0.6%, w/v) immediately prior to assay, 200 µM", "result": "little-to-no effect on parasite growth"},
      {"measurement": "effect on parasite growth at 200 µM in aged Albumax-complete RPMI", "setting": "[2]; aged medium, 200 µM", "result": "inhibits parasite growth completely"},
      {"measurement": "fold-increase in IC50 following supplementation with 100 µM pantothenate, fresh medium", "setting": "[2]; fresh Albumax-complete RPMI, IC50 at 100 µM pantothenate / IC50 at 1 µM pantothenate", "result": "1.3±0.2", "unit": "times"},
      {"measurement": "effect on parasite growth in fresh human serum-complete RPMI", "setting": "[2]; human serum (10%, v/v), fresh medium, up to 200 µM (highest concentration tested)", "result": "little-to-no effect on parasite growth"}
    ]}
  ]
}
